Experimental data reported in patent publication US20220265759A1, “COMPOSITION AND METHOD FOR PROMOTING WOUND HEALING” (THE BOARD OF TRUSTEES OF THE UNIVERSITY OF ILLIOIS, priority 2019, published 2022).
Peptide text beside a SMILES is read from it. * marks the point of attachment. Myristoyl = CCCCCCCCCCCCCC(=O)*

Legend:
[1] = tested on: eNOS; test: Immunoblot of eNOS phosphorylation in endothelial cells; format: cell-based, human; details: in presence of peptide
Method: Immunoblot and Co-Immunoprecipitation (Co-IP). After serum starvation, inhibitors were added 45 minutes prior to stimulation for indicated times at 37° C., and cells were then collected and lysed for western blot analysis. After probing for p-eNOS (Ser1177), p-p85 (Tyr458), p-Src (Tyr 416), and p-ERK (T202/Y204), the same blots were stripped and re-probed for total proteins mentioned above. For detection of CCL28-induced protein levels of β-catenin and Bcl-2, near-confluent endothelial cells were incubated with 500 ng/ml CCL28 for 24 hours in EGM-2 medium containing 1% FBS.

[2] = tested on: eNOS and CCR10 interaction with LAMP1; test: eNOS internalization and degradation in HDMVECs stimulated with CCL28 (Co-IP with LAMP1, confocal microscopy); format: cell-based, human
Method: (§1) Co-IP Experiments, cells or mouse wounds were collected after treatment, and lysed in 2% ODG in Tris buffer. The homogenates were further prepared for Co-IP experiments as described in the art (Chen, et al. (2018) Mol. Biol. Cell 29(10):1190-1202; Chen, et al. (2020) FASEB J. 34(4):5838-5850; Chen, et al. (2015) Ann. Rheum. Dis. 74:1898-1906).
Confocal Microscopy. For cellular immunostaining, confluent monolayers of cells grown on coverslips were prepared as described previously (Chen, et al. (2012) Mel. Biol. Cell 23(7):1388-1398). Fluorescent images were obtained using a Zeiss LSM 880 confocal microscope. The co-localization coefficient in specified regions of interest (ROI) were determined using Zeiss Zen software. Briefly, using the Overlay tool, the desired ROI was drawn along the cell edge and the values for the ROIs tabulated. The scatterplot and table were automatically adjusted to the pixel distribution for the selected ROI. The data from different treatment groups were collected and analyzed for statistical significance as described previously (Chen, et al. (2020) FASEB J. 34(4):5838-5850). […]
Since myristoylated 7 amino acid CCR10-binding domain (Myr-CBD7) peptide can block eNOS interaction with CCR10 and increase eNOS activity in HUVECs, it was assessed whether Myr-CBD7 can prevent eNOS internalization and degradation in HDMVECs following CCL28 stimulation. […]

[3] = tested on: CCL28, IL-6, TNF-α, IL-1β, CCR10, VEGF, IL-13, IL-4, eNOS, CD31, Flk-1, VE-cadherin; test: ELISA and real-time RT-PCR of inflammatory factors and EC markers in db/db mouse wounds; format: in vivo, db/db mice
Method: Real-Time RT-PCR. Total cellular RNA from mouse skin wounds was extracted using nucleic acid extraction reagent sold under the tradename TRIZOL®. mRNA expression of different genes was examined by real-time RT-PCR that employed a SYBR Green PCR mix. Relative gene expression was determined by the ΔΔCt method based on GAPDH levels as described previously (Chen, et al. (2013) J. Immunol. 190:5256-5266).
ELISA Measurement. Mouse skin wounds were collected, lysed, and prepared for ELISA measurement of mouse CCL28 and IL-6 according to manufacturer's instructions.
It was investigated whether topical application of Myr-CBD7 affects these factors in db/db mice known to play important roles in the healing processes. Mouse wounds on day 3 (Inflammation Phase) and day 12 (Proliferation Phase) were collected and inflammatory factor levels were determined by ELISA and real-time RT-PCR.
On day 12 after Myr-CBD7 treatment, elevated levels of eNOS/NO were observed as well as enhanced angiogenesis in mouse wounds. Furthermore, Myr-CBD7 treatment lead to elevated levels of VEGF, anti-inflammatory cytokines IL-13 and IL-4 (M2 markers), as well as EC markers eNOS, CD31, Flk-1 and VE-cadherin in mouse wounds.

[4] = molecular target: T1, CaM-eNOS binding (Homo sapiens, UniProt P0DP23); test: Co-IP of eNOS-CaM binding in endothelial cells; format: cell-based; details: pretreatment, 5-minute treatment with 500 ng/ml CCL28
T1 construct: endogenous in cells
From the text: as §1
It has been reported that calmodulin (CaM) binding to bovine eNOS occurs at residues 493-[…]-512 (SEQ ID NO:2) (Venema, et al. (1996) J. Biol. Chem. 271(11):6435-6440; Venema, et al. (1995) J. Biol. Chem. 270:14705-14711). Therefore, using Co-IP, it was assessed whether Myr-CBD7 affects eNOS-CaM binding.

- CaM-eNOS binding (Co-IP) [4]: no effect
SMILES: CCCCCCCCCCCCCC(=O)N[C@@H](CCCCN)C(=O)N[C@H](C(=O)N[C@@H](CO)C(=O)N[C@@H](C)C(=O)N[C@@H](CO)C(=O)N[C@@H](CC(C)C)C(=O)N[C@@H](CCSC)C(=O)O)[C@@H](C)CC [Myr-CBD7, myr-KISASLM] (Myristoyl-KISASLM-OH)
- eNOS phosphorylation (Ser1177) [1]: significantly enhanced
- eNOS interaction with LAMP1 ([2]; HDMVECs, pretreatment, CCL28 stimulation, compared to scrambled control peptide): prevented
- eNOS localization (confocal microscopy) ([2]; pretreatment prior to CCL28 for 3 hours): remained on the plasma membrane
- level of CCR10 ([3]; day 3, compared to control peptide): reduced
- mRNA level of IL-6 ([3]; day 3 wounds): reduced
- protein level of CCL28 ([3]; day 3 wounds, ELISA): significantly reduced
- protein level of IL-6 ([3]; day 3 wounds, ELISA): significantly reduced
- protein level of TNF-α ([3]; day 3 wounds, ELISA): significantly reduced
- level of EC marker CD31 ([3]; day 12 wounds): elevated
- level of EC marker Flk-1 ([3]; day 12 wounds): elevated
- level of EC marker VE-cadherin ([3]; day 12 wounds): elevated
- level of EC marker eNOS ([3]; day 12 wounds): elevated
- level of IL-4 ([3]; day 12 wounds): elevated
- level of IL-13 ([3]; day 12 wounds): elevated
- level of VEGF ([3]; day 12 wounds): elevated
